Several values for one entry are separate records, joined by “and”; a condition that tells them apart may be missing. Identical values can stand only once.
Columns and labels:
Akt = target: T1, Akt (Mus musculus, UniProt P31750); assay: Akt activity assay (immunoprecipitated Akt, K-Lisa); type: cell-based
T1 construct: subjected to immunoprecipitation using protein G-plus and anti-AKT PH domain (Millipore); endogenous in cells; host or cells: Neuro 2A (mouse neuroblastoma), IGF-stimulated
Method: After overnight starvation by incubating with serum-free DMEM, Neuro 2A cells were treated with compound G7 at various concentrations for 30 min at room temperature followed by stimulation with IGF (final concentration of 100 ng/mL) for 30 min. Cells were lysed with lysis buffer containing 1% Triton X-100 and protease/phosphatase inhibitors (Cell Signaling Technology) and subjected to immunoprecipitation using protein G-plus and anti-AKT PH domain (Millipore). The activity of the immunopurified Akt was evaluated using a K-Lisa Akt activity kit (Millipore) in accordance with manufacturer’s instructions. The activity was normalized to Akt level in the immunoprecipitates determined by quantitative western blot analysis.

PFPK5(P.falciparum) = test system: T2, PFPK5(P.falciparum); assay: KINOMEscan; type: binding; details: 50000 nM
T2 construct: purchased DiscoveRx KINOMEscan

EIF2AK1 = assay: KINOMEscan; details: 50000 nM
Method: KINOMEscan™ selectivity screen
(§1) The assay was perfor med at DiscoveRx Corporation according the methods published previously5. Briefly, Kinase-tagged T7 phage strains were grown in parallel in an E. coli host derived from the BL21 strain. E. coli were grown to log-phase and infected with T7 phage from a frozen stock and incubated with shaking at 32°C until lysis (90-150 minutes). The kinases were produced in HEK-293 cells and subsequently tagged with DNA for qPCR detection. Streptavidin-coated magnetic beads were treated with biotinylated small molecule ligands to generate affinity resins for kinase
(§2) inhibitor or DMSO control was performed in polypropylene 384-well plates for 1 hr at room temperature. After wash with PBS buffer containing 0.05% Tween 20, the beads were incubated in elution buffer (PBS containing 0.05 % Tween 20 and 0.5 μM non-biotinylated affinity ligand) for 30 minutes at room temperature. The kinase concentration in the eluates was measured by qPCR.

GRK3 = assay: KINOMEscan; details: 50000 nM
Method: KINOMEscan™ selectivity screen
(§3) Briefly, Kinase-tagged T7 phage strains were grown in parallel in an E. coli host derived from the BL21 strain. E. coli were grown to log-phase and infected with T7 phage from a frozen stock and incubated with shaking at 32°C until lysis (90-150 minutes). The kinases were produced in HEK-293 cells and subsequently tagged with DNA for qPCR detection. Streptavidin-coated magnetic beads were treated with biotinylated small molecule ligands to generate affinity resins for kinase
as §2

MAP4K5 = assay: KINOMEscan; details: 50000 nM
Method: KINOMEscan™ selectivity screen
as §1, §2

MST1R = assay: KINOMEscan; details: 50000 nM
Method: KINOMEscan™ selectivity screen
as §1, §2

MYO3B = assay: KINOMEscan; details: 50000 nM
Method: KINOMEscan™ selectivity screen
as §1, §2

PIK3C2B = assay: KINOMEscan; details: 50000 nM
Method: KINOMEscan™ selectivity screen
as §3, §2

PIK3CA(M1043I) = assay: KINOMEscan; details: 50000 nM
Method: KINOMEscan™ selectivity screen
as §1, §2

PRKCE = assay: KINOMEscan; details: 50000 nM
Method: KINOMEscan™ selectivity screen
as §1, §2

SRPK3 = assay: KINOMEscan; details: 50000 nM
Method: KINOMEscan™ selectivity screen
as §1, §2

FGFR3(G697C) = assay: KINOMEscan; details: 50000 nM
Method: KINOMEscan™ selectivity screen
as §1, §2

ROS1 = assay: KINOMEscan; details: 50000 nM
Method: KINOMEscan™ selectivity screen
as §1, §2

WNK3 = assay: KINOMEscan; details: 50000 nM
Method: KINOMEscan™ selectivity screen
as §1, §2

MET(M1250T) = assay: KINOMEscan; details: 50000 nM
Method: KINOMEscan™ selectivity screen
The assay was perfor med at DiscoveRx Corporation according the methods published previously5. […] The kinases were produced in HEK-293 cells and subsequently tagged with DNA for qPCR detection. Streptavidin-coated magnetic beads were treated with biotinylated small molecule ligands to generate affinity resins for kinase
as §2

NEK4 = assay: KINOMEscan; details: 50000 nM
Method: KINOMEscan™ selectivity screen
as §1, §2

ASK1 = assay: KINOMEscan; details: 50000 nM
Method: KINOMEscan™ selectivity screen
as §1, §2

TAOK2 = assay: KINOMEscan; details: 50000 nM
Method: KINOMEscan™ selectivity screen
Briefly, Kinase-tagged T7 phage strains were grown in parallel in an E. coli host derived from the BL21 strain. E. coli were grown to log-phase and infected with T7 phage from a frozen stock and incubated with shaking at 32°C until lysis (90-150 minutes). The kinases were produced in HEK-293 cells and subsequently tagged with DNA for qPCR detection.
After wash with PBS buffer containing 0.05% Tween 20, the beads were incubated in elution buffer (PBS containing 0.05 % Tween 20 and 0.5 μM non-biotinylated affinity ligand) for 30 minutes at room temperature. The kinase concentration in the eluates was measured by qPCR.

GRK2 = assay: KINOMEscan; details: 50000 nM
Method: KINOMEscan™ selectivity screen
as §3, §2

CASK = assay: KINOMEscan; details: 50000 nM
Method: KINOMEscan™ selectivity screen
as §3, §2

MLK3 = assay: KINOMEscan; details: 50000 nM
Method: KINOMEscan™ selectivity screen
as §1, §2

NEK1 = assay: KINOMEscan; details: 50000 nM
Method: as §3, §2

KIT(D816H) = assay: KINOMEscan; details: 50000 nM
Method: as §3, §2

p38-alpha = assay: KINOMEscan; details: 50000 nM
Method: KINOMEscan™ selectivity screen
as §3, §2

PIK3CA(Q546K) = assay: KINOMEscan; details: 50000 nM
Method: KINOMEscan™ selectivity screen
as §3, §2

BRSK2 = assay: KINOMEscan; details: 50000 nM
Method: KINOMEscan™ selectivity screen
as §1, §2

LOK = assay: KINOMEscan; details: 50000 nM
Method: KINOMEscan™ selectivity screen
as §1, §2

PIK3CA = assay: KINOMEscan; details: 50000 nM
Method: KINOMEscan™ selectivity screen
as §1, §2

PFTAIRE2 = assay: KINOMEscan; details: 50000 nM
Method: KINOMEscan™ selectivity screen
as §1, §2

PHKG1 = assay: KINOMEscan; details: 50000 nM
Method: KINOMEscan™ selectivity screen
as §3, §2

KIT(A829P) = assay: KINOMEscan; details: 50000 nM
Method: KINOMEscan™ selectivity screen
as §1, §2

GRK1 = assay: KINOMEscan; details: 50000 nM
Method: KINOMEscan™ selectivity screen
as §1, §2

HIPK1 = assay: KINOMEscan; details: 50000 nM
Method: KINOMEscan™ selectivity screen
as §3, §2

PRKR = assay: KINOMEscan; details: 50000 nM
Method: KINOMEscan™ selectivity screen
as §1, §2

RIPK5 = assay: KINOMEscan; details: 50000 nM
Method: KINOMEscan™ selectivity screen
as §1, §2

MEK5 = assay: KINOMEscan; details: 50000 nM
Method: KINOMEscan™ selectivity screen
as §1, §2

PRKG1 = assay: KINOMEscan; details: 50000 nM
Method: KINOMEscan™ selectivity screen
as §1, §2

IRAK4 = assay: KINOMEscan; details: 50000 nM
Method: KINOMEscan™ selectivity screen
as §3, §2

[1] = test system: ABL1(H396P)-phosphorylated; assay: KINOMEscan; details: 50000 nM
Method: KINOMEscan™ selectivity screen
as §1, §2

INSRR = assay: KINOMEscan; details: 50000 nM
Method: KINOMEscan™ selectivity screen
as §1, §2

HIPK2 = assay: KINOMEscan; details: 50000 nM
Method: KINOMEscan™ selectivity screen
as §1, §2

MST3 = assay: KINOMEscan; details: 50000 nM
Method: KINOMEscan™ selectivity screen
as §1, §2

RIOK3 = assay: KINOMEscan; details: 50000 nM
Method: KINOMEscan™ selectivity screen
as §1, §2

PDGFRA = assay: KINOMEscan; details: 50000 nM
Method: KINOMEscan™ selectivity screen
as §1, §2

CSNK1D = assay: KINOMEscan; details: 50000 nM
Method: KINOMEscan™ selectivity screen
as §1, §2

FLT3(N841I) = assay: KINOMEscan; details: 50000 nM
Method: KINOMEscan™ selectivity screen
as §3, §2

[2] = test system: RSK1(Kin.Dom.1-N-terminal); assay: KINOMEscan; details: 50000 nM
Method: KINOMEscan™ selectivity screen
as §3, §2

T1 sequence (P31750 whole entry, the tested form may be a part): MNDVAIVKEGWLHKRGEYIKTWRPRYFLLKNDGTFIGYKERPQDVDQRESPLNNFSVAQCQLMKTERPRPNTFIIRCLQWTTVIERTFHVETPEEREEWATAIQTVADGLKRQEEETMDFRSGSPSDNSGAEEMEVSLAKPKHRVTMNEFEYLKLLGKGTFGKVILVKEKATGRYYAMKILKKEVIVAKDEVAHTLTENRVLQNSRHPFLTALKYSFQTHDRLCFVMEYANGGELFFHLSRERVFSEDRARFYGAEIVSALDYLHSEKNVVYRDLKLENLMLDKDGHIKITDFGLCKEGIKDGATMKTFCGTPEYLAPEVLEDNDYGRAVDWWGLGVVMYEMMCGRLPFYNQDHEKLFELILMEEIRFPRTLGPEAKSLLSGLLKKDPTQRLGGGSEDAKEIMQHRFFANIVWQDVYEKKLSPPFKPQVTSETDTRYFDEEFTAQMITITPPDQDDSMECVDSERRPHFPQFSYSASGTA

Structure (SMILES): Oc1cc(-c2ccccc2)c2ccccc2n1 [G7, 4-phenylquinolin-2(1H)-one]
- decrease of Akt activity (Akt; G7 at 50 µM): ~ 80%
- IC50 (Akt; IGF-stimulated Neuro 2A cells, Akt immunoprecipitated, read-out: IC50 on Akt enzymatic activity): 6 µM and 6.2 µM
- Percent Control (PFPK5(P.falciparum)): 85%
- Percent Control (EIF2AK1): 100%
- Percent Control (GRK3): 100%
- Percent Control (MAP4K5): 100%
- Percent Control (MST1R): 100%
- Percent Control (MYO3B): 100%
- Percent Control (PIK3C2B): 100%
- Percent Control (PIK3CA(M1043I)): 100%
- Percent Control (PRKCE): 100%
- Percent Control (SRPK3): 100%
- Percent Control (FGFR3(G697C)): 98%
- Percent Control (ROS1): 98%
- Percent Control (WNK3): 98%
- Percent Control (MET(M1250T)): 96%
- Percent Control (NEK4): 95%
- Percent Control (ASK1): 94%
- Percent Control (TAOK2): 93%
- Percent Control (GRK2): 91%
- Percent Control (CASK): 89%
- Percent Control (MLK3): 88%
- Percent Control (NEK1): 88%
- Percent Control (KIT(D816H)): 84%
- Percent Control (p38-alpha): 83%
- Percent Control (PIK3CA(Q546K)): 83%
- Percent Control (BRSK2): 82%
- Percent Control (LOK): 82%
- Percent Control (PIK3CA): 82%
- Percent Control (PFTAIRE2): 81%
- Percent Control (PHKG1): 79%
- Percent Control (KIT(A829P)): 78%
- Percent Control (GRK1): 75%
- Percent Control (HIPK1): 74%
- Percent Control (PRKR): 74%
- Percent Control (RIPK5): 73%
- Percent Control (MEK5): 70%
- Percent Control (PRKG1): 70%
- Percent Control (IRAK4): 68%
- Percent Control [1]: 66%
- Percent Control (INSRR): 64%
- Percent Control (HIPK2): 63%
- Percent Control (MST3): 59%
- Percent Control (RIOK3): 58%
- Percent Control (PDGFRA): 52%
- Percent Control (CSNK1D): 45%
- Percent Control (FLT3(N841I)): 30%
- Percent Control [2]: 23%

Reference: paper PMC5601486, “Identification of 4-phenylquinolin-2(1H)-one as a specific allosteric inhibitor of Akt” (Scientific Reports, 2017)
